Target: T1, fluorinase FlA1 (Streptomyces sp., UniProt W0W999)
T1 construct: recombinant, overexpressed in Escherichia coli, purified
Test: global numerical fit of steady-state kinetics and mass photometry
Type: biochemical
Details: 75 mM KF, 50 mM HEPES, pH 7.8, 37 °C; competitive with fluoride; dissociation of the unproductive E·SAM complex

T1 sequence (W0W999 whole entry): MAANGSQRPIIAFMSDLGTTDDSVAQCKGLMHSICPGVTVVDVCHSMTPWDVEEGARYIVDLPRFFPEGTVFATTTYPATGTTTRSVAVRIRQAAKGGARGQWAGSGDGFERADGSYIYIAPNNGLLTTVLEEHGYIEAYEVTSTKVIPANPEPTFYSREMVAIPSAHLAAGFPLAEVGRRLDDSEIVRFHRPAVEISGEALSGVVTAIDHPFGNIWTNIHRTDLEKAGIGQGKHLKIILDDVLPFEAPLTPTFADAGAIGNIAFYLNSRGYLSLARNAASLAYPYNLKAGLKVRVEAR

In the case of `C[S+](CC[C@H](N)C(=O)O)C[C@H]1O[C@@H](n2cnc3c(N)ncnc32)[C@H](O)[C@@H]1O` (stereo partly shown) [SAM], the “Ki,SAM” value is reported as 1160 ± 80 nM.
